In ChEMBL document CHEMBL1201862, “PubChem BioAssay data set” (2004):
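Assay format: 96-well plates, 48-hour exposure. GI50 marks 50% less growth.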 Calls of active or inactive are those of the source. Cut-off read from the data, not from the text of the source: active = GI50 up to about 1.1 µM and inactive = higher.

Key:
Experiment in all cases: growth of human tumour cells (NCI), 48 h
786-0 = test system: 786-0
A549 = test system: A549
EKVX = test system: EKVX
HCT-116 = test system: HCT-116
HT-29 = test system: HT-29
K562 = test system: K562
KM12 = test system: KM12
MCF7 = test system: MCF7
MDA-MB-231 = test system: MDA-MB-231
MOLT-4 = test system: MOLT-4
NCI-H226 = test system: NCI-H226
NCI-H460 = test system: NCI-H460
NCI-H522 = test system: NCI-H522
OVCAR-4 = test system: OVCAR-4
PC-3 = test system: PC-3
SK-MEL-2 = test system: SK-MEL-2
T47D = test system: T47D
UACC-257 = test system: UACC-257
UACC-62 = test system: UACC-62

COc1ccc(N2C(=O)CSC2c2cc3cc(Br)ccc3nc2Cl)cc1 (stereo unspecified)
GI50 (786-0): > 50 µM (inactive)
GI50 (A549): 48.6 µM (inactive)
GI50 (EKVX): > 50 µM (inactive)
GI50 (HCT-116): > 50 µM (inactive)
GI50 (HT-29): > 50 µM (inactive)
GI50 (K562): 14.1 µM (inactive)
GI50 (KM12): 20.9 µM (inactive)
GI50 (MCF7): 31.7 µM (inactive)
GI50 (MDA-MB-231): > 50 µM (inactive)
GI50 (MOLT-4): 21 µM (inactive)
GI50 (NCI-H226): > 50 µM (inactive)
GI50 (NCI-H460): 22.1 µM (inactive)
GI50 (NCI-H522): 27.4 µM (inactive)
GI50 (OVCAR-4): > 50 µM (inactive)
GI50 (PC-3): > 50 µM (inactive)
GI50 (SK-MEL-2): 35.6 µM (inactive)
GI50 (T47D): 38.3 µM (inactive)
GI50 (UACC-257): 17.9 µM (inactive)
GI50 (UACC-62): 10.3 µM (inactive)

CC1=[N+](C)CCN1C
GI50 (786-0): > 100 µM (inactive)
GI50 (A549): > 100 µM (inactive)
GI50 (EKVX): > 100 µM (inactive)
GI50 (HCT-116): > 100 µM (inactive)
GI50 (HT-29): > 100 µM (inactive)
GI50 (K562): > 100 µM (inactive)
GI50 (KM12): > 100 µM (inactive)
GI50 (MCF7): > 100 µM (inactive)
GI50 (MDA-MB-231): > 100 µM (inactive)
GI50 (MOLT-4): > 100 µM (inactive)
GI50 (NCI-H226): > 100 µM (inactive)
GI50 (NCI-H460): > 100 µM (inactive)
GI50 (NCI-H522): > 100 µM (inactive)
GI50 (OVCAR-4): > 100 µM (inactive)
GI50 (PC-3): > 100 µM (inactive)
GI50 (SK-MEL-2): > 100 µM (inactive)
GI50 (T47D): > 100 µM (inactive)
GI50 (UACC-257): > 100 µM (inactive)

COC(=O)c1ccc(NCc2c(O)ccc(O)c2Br)cc1Cl
GI50 (786-0): 18.4 µM (inactive)
GI50 (A549): 54.7 µM (inactive)
GI50 (EKVX): 14.6 µM (inactive)
GI50 (HCT-116): 17.8 µM (inactive)
GI50 (HT-29): 20.7 µM (inactive)
GI50 (K562): 1.78 µM (inactive)
GI50 (KM12): 15.3 µM (inactive)
GI50 (MCF7): 16 µM (inactive)
GI50 (MDA-MB-231): 15.2 µM (inactive)
GI50 (MOLT-4): 1.36 µM (inactive)
GI50 (NCI-H226): 31.5 µM (inactive)
GI50 (NCI-H460): 18.7 µM (inactive)
GI50 (NCI-H522): 0.329 µM (active)
GI50 (OVCAR-4): 18.2 µM (inactive)
GI50 (PC-3): 13.8 µM (inactive)
GI50 (SK-MEL-2): 19.1 µM (inactive)
GI50 (T47D): 19.6 µM (inactive)
GI50 (UACC-257): 25.2 µM (inactive)
GI50 (UACC-62): 15.7 µM (inactive)

CC[C@H](C)C1=C(OC(C)=O)[N@+]2([O-])Oc3ccc(-c4c(OC(C)=O)c(OC(C)=O)c(-c5ccc(OC(C)=O)cc5)c(OC(C)=O)c4OC(C)=O)cc3O[C@]2([C@@H](C)CC)C(=O)N1OC(C)=O
GI50 (786-0): 13.6 µM (inactive)
GI50 (A549): 12.7 µM (inactive)
GI50 (EKVX): 5.45 µM (inactive)
GI50 (HCT-116): 15.2 µM (inactive)
GI50 (HT-29): 15.6 µM (inactive)
GI50 (K562): 14.5 µM (inactive)
GI50 (KM12): 14.4 µM (inactive)
GI50 (MCF7): 17.5 µM (inactive)
GI50 (MDA-MB-231): 23.9 µM (inactive)
GI50 (MOLT-4): 11.6 µM (inactive)
GI50 (NCI-H226): 17.6 µM (inactive)
GI50 (NCI-H460): 20 µM (inactive)
GI50 (NCI-H522): 8.05 µM (inactive)
GI50 (OVCAR-4): 12.2 µM (inactive)
GI50 (PC-3): 8.59 µM (inactive)
GI50 (SK-MEL-2): 9.64 µM (inactive)
GI50 (T47D): 10.5 µM (inactive)
GI50 (UACC-257): 13.7 µM (inactive)
GI50 (UACC-62): 9.46 µM (inactive)

CCOP(=O)(OCC)C(Nc1ccc(F)cc1)c1ccccc1 (stereo unspecified)
GI50 (786-0): > 100 µM (inactive)
GI50 (A549): > 100 µM (inactive)
GI50 (EKVX): > 100 µM (inactive)
GI50 (HCT-116): > 100 µM (inactive)
GI50 (HT-29): > 100 µM (inactive)
GI50 (K562): 57.9 µM (inactive)
GI50 (KM12): > 100 µM (inactive)
GI50 (MCF7): > 100 µM (inactive)
GI50 (MDA-MB-231): > 100 µM (inactive)
GI50 (MOLT-4): 92.9 µM (inactive)
GI50 (NCI-H226): > 100 µM (inactive)
GI50 (NCI-H460): > 100 µM (inactive)
GI50 (NCI-H522): 56.5 µM (inactive)
GI50 (OVCAR-4): > 100 µM (inactive)
GI50 (PC-3): 32 µM (inactive)
GI50 (SK-MEL-2): > 100 µM (inactive)
GI50 (T47D): 35.1 µM (inactive)
GI50 (UACC-257): > 100 µM (inactive)
GI50 (UACC-62): > 100 µM (inactive)

C=C(C)[C@@H]1CCC2=C[C@H](OC2=O)[C@@]2(C)C[C@@H]2C2=CC(C)=C(O2)[C@H]1O
GI50 (786-0): 21.8 µM (inactive)
GI50 (A549): 39 µM (inactive)
GI50 (EKVX): 36.8 µM (inactive)
GI50 (HCT-116): 22.3 µM (inactive)
GI50 (HT-29): 23 µM (inactive)
GI50 (K562): > 75 µM (inactive)
GI50 (KM12): 25.5 µM (inactive)
GI50 (MCF7): 53.2 µM (inactive)
GI50 (MDA-MB-231): 28.2 µM (inactive)
GI50 (MOLT-4): 24.8 µM (inactive)
GI50 (NCI-H226): 27.7 µM (inactive)
GI50 (NCI-H460): 54.3 µM (inactive)
GI50 (NCI-H522): 15.1 µM (inactive)
GI50 (OVCAR-4): 42.2 µM (inactive)
GI50 (PC-3): 33.9 µM (inactive)
GI50 (SK-MEL-2): 40.8 µM (inactive)
GI50 (T47D): 28.1 µM (inactive)
GI50 (UACC-257): 39.1 µM (inactive)
GI50 (UACC-62): 41.1 µM (inactive)

CC(C(=O)N1C(=O)N(C(=O)[C@H](C)C(O)c2ccccc2)[C@H](c2ccccc2)[C@H]1c1ccccc1)[C@@H](O)c1ccccc1 (stereo partly specified)
GI50 (786-0): 29.2 µM (inactive)
GI50 (A549): 33 µM (inactive)
GI50 (EKVX): 21.1 µM (inactive)
GI50 (HCT-116): 34.2 µM (inactive)
GI50 (HT-29): 36.6 µM (inactive)
GI50 (K562): 17.5 µM (inactive)
GI50 (KM12): 31.2 µM (inactive)
GI50 (MCF7): 26.6 µM (inactive)
GI50 (MDA-MB-231): 19.5 µM (inactive)
GI50 (NCI-H226): 27 µM (inactive)
GI50 (NCI-H460): 22.4 µM (inactive)
GI50 (NCI-H522): 30.3 µM (inactive)
GI50 (OVCAR-4): 26.5 µM (inactive)
GI50 (PC-3): 9.79 µM (inactive)
GI50 (SK-MEL-2): 16.9 µM (inactive)
GI50 (T47D): 68.9 µM (inactive)
GI50 (UACC-257): 28.4 µM (inactive)
GI50 (UACC-62): 14.6 µM (inactive)
